The source of these data is patent US20020107202A1, “Synthetic complementary peptides and ophthalmologic uses thereof” (priority 1999, published 2002).

In one assay the test system is LTB4 activated PMN. Nature of the assay: Polarization assay: inhibition of LTB4 activated PMN polarization. Type of assay: cell-based, human. The method, then:
LTB4 was dissolved in ethanol and diluted with HBSS (pH 7.3) to a final ethanol concentration of 0.001%. Synthetic complementary peptides and synthetic chemoattractants were dissolved in HBSS (pH 7.3). When necessary, the osmolality was adjusted between 280 and 320 mOsm by adding a small amount of distilled water.
(§1) Following the technique of Ferrante and Thong^13, polymorphonuclear leukocytes were isolated from fresh heparinized human whole blood by centrifugation on Hypaque-Ficoll (density=1.114) according to a described method^14. Isolated polymorphonuclear leukocytes (96-99% viability) were resuspended in HBSS with 15 mM phosphate buffer at room temperature and gently agitated on a shaker. The purity of this cell suspension was ≧85% polymorphonuclear leukocytes, ≦5% mononuclear cells and platelets, with the remaining percentage consisting of red blood cells. Purified polymorphonuclear leukocytes were used in the polarization assay. All incubation mixtures were maintained between an osmolality of 280 to 320, a pH range of 7.2 to 7.6, 15 mM phosphate buffer, and 50 μM Ca^2+ and 50 μM Mg^2+.
The polarization assay^15 was performed in a blind fashion. […] The resulting supernatant was analyzed for lactic dehydrogenase activity.^16 All incubations generated lactate dehydrogenase activity correlating with <5% cell death. […]

The subject of a further assay is resting PMNs. Put plainly: Polarization assay: substance alone on resting PMNs (agonist activity, chemoattractant response). Type of assay: cell-based, human. The conditions noted are these: none up to the given concentration. The protocol:
as §1
The polarization assay^15 was performed in a blind fashion. This assay was used to determine the polymorphonuclear leukocyte response to chemoattractants and inhibitors by measuring the frequency and degree of cellular shape change. Briefly, 2×10^5 polymorphonuclear leukocytes were mixed with preincubated synthetic complementary peptides and chemoattractants in a reaction chamber (total volume=100 μl) at 37° C. for 5 min. At the end of the incubation period an aliquot was collected and mixed with an equal volume of 4% glutaraldehyde for microscopic observation. The remaining volume of each cell suspension was immediately centrifuged at 15,000× g for 5 seconds to remove cells. The resulting supernatant was analyzed for lactic dehydrogenase activity.^16 All incubations generated lactate dehydrogenase activity correlating with <5% cell death. Polymorphonuclear leukocytes in each sample were observed microscopically and assigned scores of 0 (resting=spherical cell with a smooth membrane), 1 (activated=irregular cell with uneven membranes) or 2 (polarized=cell length≧width×2). Scores of 100 polymorphonuclear leukocytes for each sample were added to produce a polarization index. A dose response was performed for each chemoattractant. […]

The test system of assay [1] is PMN activated by ultrafiltered tripeptide chemoattractants. Nature of the assay: Polarization assay: inhibition of PMN polarization activated by alkali-degraded rabbit corneal ultrafiltrate. Type of assay: cell-based, human. The method, then: (§2) Following the technique of Ferrante and Thong^13, polymorphonuclear leukocytes were isolated from fresh heparinized human whole blood by centrifugation on Hypaque-Ficoll (density=1.114) according to a described method^14. […] Purified polymorphonuclear leukocytes were used in the polarization assay. All incubation mixtures were maintained between an osmolality of 280 to 320, a pH range of 7.2 to 7.6, 15 mM phosphate buffer, and 50 μM Ca^2+ and 50 μM Mg^2+.
(§3) The polarization assay^15 was performed in a blind fashion. This assay was used to determine the polymorphonuclear leukocyte response to chemoattractants and inhibitors by measuring the frequency and degree of cellular shape change. Briefly, 2×10^5 polymorphonuclear leukocytes were mixed with preincubated synthetic complementary peptides and chemoattractants in a reaction chamber (total volume=100 μl) at 37° C. for 5 min. At the end of the incubation period an aliquot was collected and mixed with an equal volume of 4% glutaraldehyde for microscopic observation. The remaining volume of each cell suspension was immediately centrifuged at 15,000× g for 5 seconds to remove cells. […] Polymorphonuclear leukocytes in each sample were observed microscopically and assigned scores of 0 (resting=spherical cell with a smooth membrane), 1 (activated=irregular cell with uneven membranes) or 2 (polarized=cell length≧width×2). Scores of 100 polymorphonuclear leukocytes for each sample were added to produce a polarization index. A dose response was performed for each chemoattractant. A concentration of each chemoattractant was chosen from the linear portion of each dose response curve and used as the positive control. Negative control samples consisted of polymorphonuclear leukocytes in HBSS only. […] The Student's t-test (unpaired) was used to analyze the differences in the mean polarization response between polymorphonuclear leukocytes activated with the chemoattractant in the absence or presence of complementary peptides.

For assay [2], the system named is N-acetyl-PGP activated PMN. Put plainly: Polarization assay: inhibition of N-acetyl-PGP activated PMN polarization. It is filed as cell-based, human. Conditions: for inhibitory properties against N-acetyl-PGP, fold less than the RTR dimer: comparison of ID50 values. The method, then: as §2, §3
The subject of assay [3] is alkali-injured rabbit eye. Nature of the assay: Alkali-injury model, corneal ulceration. Type of assay: in vivo. The protocol:
Animals were maintained and treated in full compliance with the Association for Research in Vision and Ophthalmology (ARVO) Resolution on the Use of Animals in Research. Forty-eight New Zealand Dutch strain albino rabbits (Myrtles Rabbitry, Thompson Station, Tenn., U.S.A.) weighing 2.0 to 2.5 kg were anesthetized with ketamine HCl (12 mg/kg) and xylazine (7.5 mg/kg). Two drops of topical proparacaine (Allergan, Hormigueros, Puerto Rico) were placed in the right eye of each rabbit. Following ocular proptosis, a 12 mm plastic well was centered on the cornea and 0.4 ml of 1 N NaOH instilled into the well and left for a period of 35 sec. The alkali was aspirated and the well irrigated with 10 ml of physiological saline. Erythromycin ointment (0.5%) was applied two times a day and study medications given by the technique of Fraunfelder. Double blind examinations (slit lamp and dissecting microscopy) were conducted on Monday, Wednesday and Friday with photographs on Wednesday. Evaluation was made for the presence and size of epithelial defects, corneal ulceration, perforation and vascularization. Animals were randomly subdivided into two groups of 16 eyes each: 1) Phosphate buffered saline (PBS) control and 2) 800 μM (D)-RTR tetramer in PBS or 1.5 mM (L)-RTR tetramer in PBS alternating every hour. Each animal received one drop of the appropriate medication every hour for 14 hours a day for 33 days and dropping was discontinued until the end of the experiment on day 42.

[4] abbreviates: day 42, 16 eyes, topical drops to day 33.

No end group written: not given here.

In the case of “((H2N-Arg-Thr-Arg-Gly-Gly)2-Lys)2-Lys-Ala-CONH2 (H-RTRGG; also: tetrameric Lys-branched, on Lys-Ala-CONH2 core) [RTR tetramer]”, the “antagonism of LTB4 activation of PMNs, in words” value in the assay on LTB4 activated PMN is on record as “no effect on LTB4”. In addition, the “Agonist Activity” value in the assay on resting PMNs is reported as “None, ≦ 8 mM”. Further, the “inhibition of PMNs activated by the ultrafiltered tripeptide chemoattractants, in words” value (“inhibition of PMNs activated” for short) in assay [1] is “inhibited”. For the same substance, the “affinity for N-acetyl-PGP, fold greater than the RTR monomer” value in assay [2] was 10,000 fold. For the same substance, in assay [3] (16 eyes, day 42), the “TOTAL ULCERS End of expt (day 42) (number)” value was found to be 6 and the “TOTAL ULCERS End of expt (day 42) (percent of eyes)” value was found to be 37.5%. Further, in assay [3] (16 eyes, during experiment), the “TOTAL ULCERS During expt (number)” value was 7 and the “TOTAL ULCERS During expt (percent of eyes)” value is 43.8%. Also, in assay [3] (compared to PBS group), the “incidence of corneal ulcers after alkali-injury, in words” value is listed as “statistically significant reduction in the frequency of corneal ulceration”. This substance registered a number of ulcers in assay [3] (day 33, 16 eyes, 800 μM (D)- and 1.5 mM (L)-RTR tetramer drops alternating every hour) of 4 ulcers. In assay [3] (setting [4]), the “ULCER DEPTH: Anterior (eyes)” value is reported as 4, the “ULCER DEPTH: Descemetocele (eyes)” value was determined as 1, the “ULCER DEPTH: Middle (eyes)” value was found to be 0 and the “ULCER DEPTH: No Ulcer (eyes)” value is 9. Also, in assay [3] (setting [4]), the “ULCER DEPTH: Perforation (eyes)” value came out at 0 and the “ULCER DEPTH: Posterior (eyes)” value is listed as 2.
As to Arg-Thr-Arg [RTR], the “Agonist Activity” value in the assay on resting PMNs was “None, ≦ 40 mM”. Also, the “inhibition of PMNs activated” value in assay [1] is “inhibited”. Moreover, in assay [2], the “inhibition of N-acetyl-PGP activated PMN polarization, in words” value was “only antagonistic at millimolar concentrations” and the “inhibitory properties against N-acetyl-PGP, fold less than the RTR dimer” value amounted to 20 fold.
With RTRGG, the “Agonist Activity” value in the assay with resting PMNs is recorded as “None, ≦ 40 mM”. In addition, the “inhibition of PMNs activated” value in assay [1] is given as “inhibited”. Also, in assay [2], the “inhibition of N-acetyl-PGP activated PMN polarization, in words” value was “only antagonistic at millimolar concentrations” and the “inhibitory properties against N-acetyl-PGP, fold less than the RTR dimer” value turned out to be 20 fold.
